From patent US20070172957A1, “Methods of identifying anti-inflammatory macrolides” (TAISHO PHARMACEUTICAL CO., LTD., priority 2004, published 2007)

System: genes predictive for the anti-inflammatory macrolide effect
Experiment: Genes statistically predictive of Clari response: differentially expressed with Clari but not the inactive macrolides MAA or Josa (Appendix E)
Assay type: cell-based
From the text: In the case of the above-mentioned (i) related to arachidonic acid biosynthesis, specifically, methods of the embodiment involve assaying whether a test macrolide alters biosynthesis of arachidonic acid, alters the expression or activities of enzymes involved in the biosynthesis or activation of arachidonic acid (e.g., arachidonic acid CoA synthetase, delta-6 desaturase, fatty acid elongase, and delta-5 desaturase, AA-related genes in Tables 2 and 3), or alters the expression of genes identified as predictive for the anti-inflammatory macrolide effect (Appendix E). Assays in which arachidonic acid or gene expression or enzymatic activity is detected can be carried out after contacting a cell with a test macrolide. Any cell line that secretes prostaglandin or produces arachidonic acid can be used. Epithelial and macrophages lines (e.g., A549 or THP-1) are suitable for this purpose; other cell lines can be identified by carrying out assays such as those described in the specific Examples, below. Alternatively, screening assays can be carried out after adding a test macrolide to an in vitro cell system (e.g., a cellular extract or liver microsome preparation) or an in vitro enzyme assay system.

CC[C@H]1OC(=O)[C@H](C)[C@@H](O[C@H]2C[C@@](C)(OC)[C@@H](O)[C@H](C)O2)[C@H](C)[C@@H](O[C@@H]2O[C@H](C)C[C@H](N(C)C)[C@H]2O)[C@](C)(OC)C[C@@H](C)C(=O)[C@H](C)[C@@H](O)[C@]1(C)O [clarithromycin]
group mean, gene BCKDK (SpotID 47949, MAA and Josa vs. Clari): 0.94 | group mean, gene DNASE1L1 (SpotID 47950, MAA and Josa vs. Clari): 1.06 | mean group, DNASE1L1 (SpotID 47950, pooled group mean): 1.03 | group mean, gene COX15 (SpotID 47951, MAA and Josa vs. Clari): 0.94 | mean group, USF2 (SpotID 47973, pooled group mean): 1.05 | group mean, gene THBS1 (SpotID 47987, MAA and Josa vs. Clari): 0.60 | mean group, THBS1 (SpotID 47987, pooled group mean): 0.71 | mean group, RPN2 (SpotID 47988, pooled group mean): 1.02 | group mean, gene PTGER1 (SpotID 47995, MAA and Josa vs. Clari): 0.73 | group mean, gene CTSH (SpotID 48000, MAA and Josa vs. Clari): 1.22 | mean group, CUTL1 (SpotID 48004, pooled group mean): 1.02 | group mean, gene BCL2L2 (SpotID 48006, MAA and Josa vs. Clari): 1.02 | mean group, SRF (SpotID 48026, pooled group mean): 1.03 | group mean, gene SCN1B (SpotID 48121, MAA and Josa vs. Clari): 1.07 | mean group, FRDA (SpotID 48137, pooled group mean): 0.90 | group mean, gene SFRS7 (SpotID 48149, MAA and Josa vs. Clari): 0.85 | mean group, SFRS7 (SpotID 48149, pooled group mean): 0.88 | group mean, gene ZAP3 (SpotID 48160, MAA and Josa vs. Clari): 0.92 | mean group, ZAP3 (SpotID 48160, pooled group mean): 0.95 | group mean, gene SNAPC1 (SpotID 48182, MAA and Josa vs. Clari): 0.87 | group mean, gene OPA1 (SpotID 48192, MAA and Josa vs. Clari): 0.90 | group mean, gene BAT8 (SpotID 48214, MAA and Josa vs. Clari): 1.11 | group mean, gene MAPK12 (SpotID 48233, MAA and Josa vs. Clari): 1.05 | mean group, MAPK12 (SpotID 48233, pooled group mean): 1.03 | group mean, gene DAXX (SpotID 48235, MAA and Josa vs. Clari): 0.93 | group mean, gene GRB2 (SpotID 48266, MAA and Josa vs. Clari): 1.06 | mean group, GRB2 (SpotID 48266, pooled group mean): 1.04 | group mean, gene ARHC (SpotID 48280, MAA and Josa vs. Clari): 1.01 | group mean, gene GCN5L1 (SpotID 48301, MAA and Josa vs. Clari): 1.02 | mean group, GCN5L1 (SpotID 48301, pooled group mean): 1.01 | group mean, gene FN1 (SpotID 48328, MAA and Josa vs. Clari): 0.53 | group mean, gene DNMT1 (SpotID 48333, MAA and Josa vs. Clari): 0.79 | mean group, CCT3 (SpotID 48345, pooled group mean): 1.03 | group mean, gene FN1 (SpotID 48348, MAA and Josa vs. Clari): 0.53 | group mean, gene CNOT2 (SpotID 48363, MAA and Josa vs. Clari): 0.92 | group mean, gene MAPK9 (SpotID 48365, MAA and Josa vs. Clari): 0.92 | mean group, MAPK9 (SpotID 48365, pooled group mean): 0.94 | group mean, gene CNOT2 (SpotID 48396, MAA and Josa vs. Clari): 0.91 | group mean, gene HIF1A (SpotID 48397, MAA and Josa vs. Clari): 0.89 | group mean, gene MGEA5 (SpotID 48411, MAA and Josa vs. Clari): 1.19 | mean group, MGEA5 (SpotID 48411, pooled group mean): 1.13 | group mean, gene SERPINB1 (SpotID 48415, MAA and Josa vs. Clari): 1.32 | mean group, SERPINB1 (SpotID 48415, pooled group mean): 1.28 | group mean, gene M6PR (SpotID 48451, MAA and Josa vs. Clari): 1.12 | group mean, gene DDC (SpotID 48456, MAA and Josa vs. Clari): 0.94 | mean group, DDC (SpotID 48456, pooled group mean): 0.97 | mean group, BARD1 (SpotID 48461, pooled group mean): 0.86 | group mean, gene MCM5 (SpotID 48470, MAA and Josa vs. Clari): 0.68 | group mean, gene RBM3 (SpotID 48471, MAA and Josa vs. Clari): 0.87 | mean group, SpotID 48486 (SpotID 48486 (gene symbol not given), pooled group mean): 0.94 | group mean, gene RPL13A (SpotID 48500, MAA and Josa vs. Clari): 0.90 | mean group, RPL13A (SpotID 48500, pooled group mean): 0.92 | group mean, gene USP24 (SpotID 48508, MAA and Josa vs. Clari): 0.87 | group mean, gene ARAF1 (SpotID 48521, MAA and Josa vs. Clari): 0.95 | mean group, ARAF1 (SpotID 48521, pooled group mean): 0.98 | group mean, gene APLP2 (SpotID 48530, MAA and Josa vs. Clari): 1.15 | mean group, APLP2 (SpotID 48530, pooled group mean): 1.10 | mean group, NFE2L1 (SpotID 48557, pooled group mean): 1.06 | mean group, XBP1 (SpotID 48620, pooled group mean): 1.10 | group mean, gene DIP2 (SpotID 48643, MAA and Josa vs. Clari): 0.87 | group mean, gene KIAA0323 (SpotID 48644, MAA and Josa vs. Clari): 1.14 | group mean, gene SDCBP (SpotID 48646, MAA and Josa vs. Clari): 1.11 | mean group, SDCBP (SpotID 48646, pooled group mean): 1.08 | mean group, FECH (SpotID 48654, pooled group mean): 0.98 | group mean, gene CHK (SpotID 48672, MAA and Josa vs. Clari): 1.01 | group mean, gene HSPBP1 (SpotID 48693, MAA and Josa vs. Clari): 0.87 | mean group, HSPBP1 (SpotID 48693, pooled group mean): 0.91 | group mean, gene SIGIRR (SpotID 48705, MAA and Josa vs. Clari): 1.12 | group mean, gene P4HA1 (SpotID 48707, MAA and Josa vs. Clari): 1.25 | mean group, P4HA1 (SpotID 48707, pooled group mean): 1.18 | group mean, gene MKNK2 (SpotID 48713, MAA and Josa vs. Clari): 1.22 | mean group, PPP3CB (SpotID 48717, pooled group mean): 0.95 | group mean, gene IKKE (SpotID 48725, MAA and Josa vs. Clari): 0.97 | mean group, IKKE (SpotID 48725, pooled group mean): 0.94 | mean group, RALA (SpotID 48732, pooled group mean): 1.06 | mean group, MAFB (SpotID 48747, pooled group mean): 0.93 | group mean, gene KIAA0217 (SpotID 48804, MAA and Josa vs. Clari): 0.85 | mean group, KIAA0217 (SpotID 48804, pooled group mean): 0.88
